Test results taken from paper PMC9412414, “A Study on Repositioning Nalidixic Acid via Lanthanide Complexation: Synthesis, Characterization, Cytotoxicity and DNA/Protein Binding Studies” (Pharmaceuticals, 2022).

Tests used:
EB–DNA system (CT-DNA) = test: Competitive binding assay with ethidium bromide (EB) through fluorescence spectroscopy; design: species or system calf; details: EB 2 µM, CT-DNA 10 µM, compound 0–40 µM
Procedure: The fluorescence spectra were recorded using 1.6 mL samples containing 10 µM CT-DNA, 2 µM EB, and increasing amounts (0–40 µM with an increment of 5 µM) of tested compounds; the samples were prepared by keeping the components in contact for 10 min at room temperature, under continuous stirring and in the dark. The excitation wavelength was 500 nm, and the spectra were recorded between the wavelengths of 520 and 800 nm. A Jasco FP 6500 fluorometer and quartz cells with a 1 cm route length were employed. The classical Stern–Volmer equation (Equation (3)) was used to interpret the obtained data:(3) F0/F=1+KSV·[Q] F0 and F are the fluorescence intensities of the EB–DNA samples in the absence and presence of the tested compounds, respectively; KSV is the Stern–Volmer constant, which was computed as the slope from the plot of F0/F vs. [Q], where [Q] is the chemical concentration.
The binding ratio was plotted against the logarithm of the concentration in comparison with a control sample exposed solely to DMSO. (4) y=A1+(A2−A1)×x^n/K50^n+x^n
For fitting data points, the modified Hill function with offset (Origin®) was used: where y represents the binding ratio (F/F0), x represents the concentration, A1 represents the minimum of y values, A2 represents the maximum of y values, K50 represents the concentration corresponding to 50% binding or the half maximum binding constant, and n represents the Hill coefficient.

apotransferrin (apo-Tf) = target: T1, apotransferrin (apo-Tf) (Homo sapiens, UniProt P02787); test: Apo-Tf fluorescence quenching binding study; details: for Kd: read-out: Kd (dissociation constant), Apo-Tf; for fa (fraction of fluorophore accessible to the quencher), Apo-Tf / Ksv* (Stern–Volmer quenching constant), Apo-Tf: compound 0–8 µM; for Ksv* (Stern–Volmer quenching constant), Apo-Tf: Tris-HCl pH 7.4, 298 K; for Kq (bimolecular quenching constant), Apo-Tf: from Ksv* with τ0 = 10^−8 s
T1 construct: purchased Sigma-Aldrich Chemical Co. (Schnelldorf, Germany)
T1 sequence (P02787 20-698): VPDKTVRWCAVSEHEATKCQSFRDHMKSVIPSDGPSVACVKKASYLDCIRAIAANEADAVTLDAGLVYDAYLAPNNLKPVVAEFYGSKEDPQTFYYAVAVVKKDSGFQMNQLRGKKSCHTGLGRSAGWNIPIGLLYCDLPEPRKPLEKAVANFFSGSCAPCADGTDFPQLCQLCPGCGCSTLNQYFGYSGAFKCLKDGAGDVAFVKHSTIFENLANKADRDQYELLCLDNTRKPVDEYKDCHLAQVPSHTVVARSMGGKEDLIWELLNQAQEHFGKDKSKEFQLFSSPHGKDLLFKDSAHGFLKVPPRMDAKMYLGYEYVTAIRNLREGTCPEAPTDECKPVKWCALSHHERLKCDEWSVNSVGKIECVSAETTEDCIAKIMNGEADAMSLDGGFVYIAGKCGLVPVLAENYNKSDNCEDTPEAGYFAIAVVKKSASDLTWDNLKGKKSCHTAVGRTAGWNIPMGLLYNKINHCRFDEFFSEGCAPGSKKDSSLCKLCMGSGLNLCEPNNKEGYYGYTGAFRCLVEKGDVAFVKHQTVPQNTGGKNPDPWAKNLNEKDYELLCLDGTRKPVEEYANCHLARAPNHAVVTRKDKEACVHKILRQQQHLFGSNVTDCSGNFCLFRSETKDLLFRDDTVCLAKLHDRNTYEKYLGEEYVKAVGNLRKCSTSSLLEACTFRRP
Procedure: (§1) Using a Jasco FP 6500 spectrofluorometer (Jasco, Tokyo, Japan) and quartz cells with a 1 cm path length, the fluorescence spectra of HSA and apo-Tf were recorded in the presence and absence of the examined substances. The 2.5 mL samples containing 2.5 µM HSA or 1 µM apo-Tf were titrated by adding 5 µL of the tested substance at a time, a volume that corresponded to a 1 µM increase in concentration. The concentration range used for these experiments varied from 0 to 8 µM. The relevant spectra were collected in the emission domains of 300–500 nm (HSA) and 305–500 nm (apo-Tf) after 3 min of continuous stirring at room temperature, using excitation wavelengths of 280 nm (HSA) and 295 nm (apo-Tf).
(§2) Experiments were conducted in a pH = 7.4 Tris-HCl buffer (5 mM Tris-HCl/50 mM NaCl for HSA and 5 mM Tris-HCl/50 mM NaCl/25 mM NaHCO3 for apo-Tf).
(§3) The following modified Stern–Volmer equation has been used to calculate the Stern–Volmer constant, which will be denoted as KSV* in order to differentiate it from the Stern–Volmer constant calculated for the DNA binding experiments:(5) F0/F0−F=1/faKsv*[Q]+1/fa where F0 and F are the fluorescence intensities in the absence and presence of the tested compounds, fa is the fraction of fluorophore accessible to the quencher (the tested compounds), [Q] is the quencher concentration, and KSV* (M^−1) is the Stern–Volmer constant; the plot of F0/(F0 − F) against 1/[Q] yields KSV as the slope and fa as the y intercept.
(§4) Subsequently, the bimolecular quenching rate constant was obtained by using Equation (6):(6) Ksv^*=Kqτ0
(§5) Kq (M^−1·s^−1) is the bimolecular quenching rate constant and τ0 is the fluorophore’s lifespan in the absence of the investigated chemicals (10^−8 s). The value of Kq can be used to assess whether the quenching phenomena have an underlying static or dynamic mechanism.
(§6) Using the following equation, the affinity constant (Ka) and the number of binding sites (n) have been calculated: (7) lgF0−F/F=lgKa+nlg[Q]
(§7) The binding affinity, Kd, can be calculated using the quadratic function below:(8) F0−F/F0−Fb=[P]t+[Q]+Kd−([P]t+[Q]+Kd)^2−4[P]t[Q]/2[P]t where F and F0 are the fluorescence intensities of the protein in the presence and absence of the quencher, respectively, Fb is the fluorescence of a fully bound protein–quencher, [P]t is the total concentration of the protein, and [Q] is the concentration of the added quencher. Each binding isotherm was plotted against the total quencher concentration in solution as a function of bound to free protein (F/F0).
(§8) The isotherms were then fitted using the nonlinear regression function below:(9) F/F0= F1+(F2−F1)Kdn/Kdn+[Q]^n where n represents the Hill coefficient, F1 and F2 are the horizontal and vertical asymptotes, respectively. The Kd in Equation (9) is derived from the quadratic binding function (Equation (8)).
(§9) Data were collected in triplicate, averaged, and expressed as mean value ± standard deviation (SD). All graph fitting models were defined and built using OriginPro® 2018.

[1] = target: T2, human serum albumin (HSA) (Homo sapiens, UniProt P02768); test: HSA fluorescence quenching binding study; details: for Ka (association binding constant), HSA / n1 (Number of Binding Sites), HSA / n2 (Hill Coefficient), HSA / Kd / fa (fraction of fluorophore accessible to the quencher), HSA / Kq (bimolecular quenching constant), HSA: 298 K; for Kd: read-out: Kd (dissociation constant), HSA; for Kq (bimolecular quenching constant), HSA: from Ksv* with τ0 = 10^−8 s
T2 construct: purchased Sigma-Aldrich Chemical Co. (Schnelldorf, Germany)
T2 sequence (P02768 25-609): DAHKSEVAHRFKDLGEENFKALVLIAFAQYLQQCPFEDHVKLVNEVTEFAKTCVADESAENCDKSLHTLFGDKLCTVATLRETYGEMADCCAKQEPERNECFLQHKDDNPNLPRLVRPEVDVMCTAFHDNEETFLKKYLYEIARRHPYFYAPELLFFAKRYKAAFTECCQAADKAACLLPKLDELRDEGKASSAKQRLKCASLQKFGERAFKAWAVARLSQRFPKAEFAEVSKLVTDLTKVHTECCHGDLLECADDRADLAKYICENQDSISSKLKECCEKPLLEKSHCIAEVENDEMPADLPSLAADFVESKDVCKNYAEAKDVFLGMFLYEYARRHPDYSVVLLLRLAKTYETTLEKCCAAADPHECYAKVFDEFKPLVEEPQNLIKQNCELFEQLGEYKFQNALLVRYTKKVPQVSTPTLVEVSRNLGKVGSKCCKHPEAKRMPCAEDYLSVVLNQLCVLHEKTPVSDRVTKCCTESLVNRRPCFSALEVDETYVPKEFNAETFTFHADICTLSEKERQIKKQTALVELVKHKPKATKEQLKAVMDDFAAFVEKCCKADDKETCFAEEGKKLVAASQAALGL
Procedure: as §1, §2, §3, §4, §5, §6, §7, §8, §9

[2] = system: LoVo (human colorectal adenocarcinoma) cell line; test: MTS cytotoxicity assay, LoVo cell line; format: cell-based; details: 48 h of incubation
Procedure: (§10) LoVo, MDA-MB-231 and HUVEC human cell lines were purchased from American Type Culture Collection (ATCC). Cells were routinely maintained in culture either in culture flasks or seeded in plates, using Dulbecco’s modified Eagle medium/nutrient mixture F-12 (DMEM:F12) medium supplemented with […], 10% fetal calf serum (Sigma Aldrich, St. Louis, MO, USA), 100 units/mL penicillin, 100 μg/mL streptomycin and incubated at 37 °C in 5% CO2 humidified atmosphere.
(§11) Cytotoxicity studies were performed in 96-well microtiter plates with flat bottoms (Falcon, Teterboro, NJ, USA) using the CellTiter 96 Aqueous One Solution Cell Proliferation Assay (Promega, Madison, WI, USA), an MTS-based colorimetric assay. Metabolically active cells have the ability to reduce MTS [3-(4,5-dimethylthiazol-2-yl)-5-(3-carboxymethoxyphenyl)-2-(4-sulfophenyl)-2H-tetrazolium, inner salt], a yellow tetrazolium salt, to a colored formazan that is soluble in the culture medium. Briefly, 15 × 10^3 cells per well were cultured in 100 µL culture medium. After 24 h, adherent cells were treated with different concentrations of the studied compounds, as well as adriamycin (Adr) and cisplatin (Cis-Pt), used as positive controls for 24 h and 48 h, respectively. Each well was then filled with 20 µL of reagent containing MTS and PES (phenazine ethosulfate, a cationic dye with excellent chemical stability that binds to MTS and produces a stable solution). The resulting formazan was determined using a Tecan GENios Spectrophotometer (Tecan US, Durham, NC, USA) by measuring the absorbance at λ = 492 nm after incubation for 4 h at 37 °C with moderate agitation every 15 min. The cytotoxicity tests were performed in triplicate, with results reported as mean values with standard deviations (SD). The cytotoxicity of DMSO was also investigated under the same conditions, and no harmful effect was found at doses less than 1%.
(§12) Data were expressed as cell viability by comparing with untreated cells considered 100% viable, using the following formula:(1) Cell viability (%)=absorbance of treated cells−absorbance of culture medium/absorbance of untreated cells−absorbance of culture medium

[3] = system: HUVEC (human umbilical vein endothelial cells); test: MTS cytotoxicity assay, HUVEC normal cell line; format: cell-based; details: 24 h of incubation
Procedure: as §10, §11, §12

Substance | EB Displacement Assay K50 (half maximum binding constant) (EB–DNA system (CT-DNA)) [µM] | KSV, Stern–Volmer quenching constant (EB–DNA) (EB–DNA system (CT-DNA)) | Ka (association binding constant), Apo-Tf (apotransferrin (apo-Tf); apo-Tf 1 µM, 298 K) | n1 (Number of Binding Sites), Apo-Tf (apotransferrin (apo-Tf); apo-Tf 1 µM, 298 K) | n2 (Hill Coefficient), Apo-Tf (apotransferrin (apo-Tf); apo-Tf 1 µM, 298 K) | Kd (apotransferrin (apo-Tf); apo-Tf 1 µM, 298 K) [µM] | fa (fraction of fluorophore accessible to the quencher), Apo-Tf (apotransferrin (apo-Tf); apo-Tf 1 µM, 298 K) | Ksv* (Stern–Volmer quenching constant), Apo-Tf (apotransferrin (apo-Tf); apo-Tf 1 µM) | Kq (bimolecular quenching constant), Apo-Tf (apotransferrin (apo-Tf); 298 K) [M⁻¹ s⁻¹] | Ka (association binding constant), HSA ([1]; HSA 2.5 µM) | n1 (Number of Binding Sites), HSA ([1]; HSA 2.5 µM) | n2 (Hill Coefficient), HSA ([1]; HSA 2.5 µM) | Kd ([1]; HSA 2.5 µM) [µM] | fa (fraction of fluorophore accessible to the quencher), HSA ([1]; HSA 2.5 µM, compound 0–8 µM) | Ksv* (Stern–Volmer quenching constant), HSA ([1]; HSA 2.5 µM, compound 0–8 µM, Tris-HCl pH 7.4, 298 K) | Kq (bimolecular quenching constant), HSA [1] [M⁻¹ s⁻¹] | IC50 [2] [µM] | IC50 [3] [µM]
Gd(C12H11N2O3)3(H2O)2·1.5H2O [Gd(nal)3] | 31.88 ± 7.73 | 9.86 ± 0.19 M^−1 (×10^3) | (2.63 ± 0.39) × 10^4 M^−1 | 0.87 ± 0.01 | 1.22 ± 0.12 | 5.86 ± 0.72 | 0.82 ± 0.02 | (1.78 ± 0.07) × 10^5 M^−1 | 1.78e+13 | (19.61 ± 1.83) × 10^5 M^−1 | 1.14 ± 0.01 | 1.35 ± 0.12 | 3.27 ± 0.11 | 1.10 ± 0.00 | (2.69 ± 0.05) × 10^5 M^−1 | 2.69e+13 | 28.4 ± 7.95 | 58.4 ± 29.3
Tb(C12H11N2O3)3(H2O)2·1.5H2O [Tb(nal)3] | 31.96 ± 10.16 | 8.35 ± 0.11 M^−1 (×10^3) | (1.63 ± 0.42) × 10^4 M^−1 | 0.83 ± 0.02 |  | 5.76 ± 2.6 | 0.68 ± 0.01 | (2.70 ± 0.11) × 10^5 M^−1 | 2.7e+13 | (31.26 ± 9.66) × 10^5 M^−1 | 1.18 ± 0.02 | 0.89 ± 0.35 | 4.61 ± 1.67 | 1.13 ± 0.02 |  | 2.39e+13 | 25.6 ± 6.97 | 96.2 ± 48.8
